± gives the standard deviation of the averaged measurements.
Columns and labels:
[1] = compound: CC(=O)c1c(C)c2cnc(Nc3ccc(N4CCNCC4)cn3)nc2n(C2CCCC2)c1=O; assay: surviving fraction relative to DMSO-only wells; higher = less growth inhibition; settings: exposure time: 5 days
Outline: (§1)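 Luminescence normalised to the median of DMSO-only wells defines surviving fraction, with viability read by CellTiter-Glo. Signal was recorded after 10 minutes at room temperature, once log-phase tumour cell lines seeded at 250–500 cells per well in 384-well plates had spent 24 hours settling and then five days under continuous exposure to inhibitors at 0.5, 1, 5, 10, 50, 100, 500 and 1000 nM.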

GEFITINIB = compound: COc1cc2ncnc(Nc3ccc(F)c(Cl)c3)c2cc1OCCCN1CCOCC1 [GEFITINIB]; assay: as above; settings: exposure time: 5 days
Outline: as §1

Row | Test System | surviving fraction ([1]; 0.5 nM) | surviving fraction ([1]; 1 nM) | surviving fraction ([1]; 5 nM) | surviving fraction ([1]; 10 nM) | surviving fraction ([1]; 50 nM) | surviving fraction ([1]; 100 nM) | surviving fraction ([1]; 500 nM) | surviving fraction ([1]; 1000 nM) | surviving fraction (GEFITINIB; 0.5 nM) | surviving fraction (GEFITINIB; 1 nM) | surviving fraction (GEFITINIB; 5 nM) | surviving fraction (GEFITINIB; 10 nM) | surviving fraction (GEFITINIB; 50 nM) | surviving fraction (GEFITINIB; 100 nM) | surviving fraction (GEFITINIB; 500 nM) | surviving fraction (GEFITINIB; 1000 nM)
1 | 143B BONE | 1.042 ± 0.0092 | 1.048 ± 0.0064 | 1.03 ± 0.021 | 1.051 ± 0.0099 | 1.03 ± 0.046 | 1.043 ± 0.0099 | 1.03 ± 0.027 | 1.02 ± 0.027 | 1.07 ± 0.023 | 1.08 ± 0.075 | 1.11 ± 0.084 | 1.1 ± 0.033 | 1.14 ± 0.077 | 1.12 ± 0.054 | 1.14 ± 0.11 | 1.13 ± 0.15
2 | SJSA1 BONE | 1 ± 0.037 | 1.01 ± 0.099 | 1.028 ± 0.0059 | 1.04 ± 0.049 | 1.08 ± 0.028 | 1.12 ± 0.013 | 0.922 ± 0.037 | 0.88 ± 0.036 | 1.15 ± 0.059 | 1.59 ± 0.071 | 1.62 ± 0.018 | 0.602 ± 0.04 | 1.8 ± 0.065 | 1.67 ± 0.033 | 1.68 ± 0.052 | 1.68 ± 0.018
3 | SG32 HEADNECK | 1.05 ± 0.16 | 1.31 ± 0.3 | 1.2 ± 0.11 | 1.09 ± 0.082 | 0.942 ± 0.11 | 0.993 ± 0.16 | 0.699 ± 0.059 | 0.721 ± 0.03 | 1.33 ± 0.14 | 1.37 ± 0.097 | 1.39 ± 0.32 | 1.19 ± 0.24 | 1.28 ± 0.066 | 1.1 ± 0.12 | 0.826 ± 0.15 | 0.961 ± 0.094
4 | PCI30 HEADNECK | 1.07 ± 0.085 | 1.04 ± 0.069 | 1.08 ± 0.1 | 1.07 ± 0.03 | 1.09 ± 0.062 | 0.931 ± 0.065 | 0.81 ± 0.06 | 0.781 ± 0.016 | 0.996 ± 0.063 | 1.01 ± 0.051 | 1.071 ± 0.0044 | 1.12 ± 0.017 | 0.959 ± 0.095 | 0.842 ± 0.028 | 0.466 ± 0.026 | 0.393 ± 0.033
5 | SIHA CERVIX | 1.09 ± 0.085 | 1.12 ± 0.087 | 1.17 ± 0.11 | 1.11 ± 0.041 | 1.1 ± 0.039 | 1.13 ± 0.11 | 1.12 ± 0.15 | 1.02 ± 0.067 | 1.01 ± 0.017 | 1.01 ± 0.076 | 1.08 ± 0.053 | 1.07 ± 0.091 | 1.12 ± 0.11 | 1.1 ± 0.059 | 0.99 ± 0.084 | 0.956 ± 0.061
6 | HS57T BREAST | 1.02 ± 0.025 | 1.08 ± 0.097 | 1.11 ± 0.052 | 1.1 ± 0.031 | 1.16 ± 0.043 | 1.11 ± 0.032 | 0.954 ± 0.055 | 0.96 ± 0.039 | 0.973 ± 0.033 | 0.994 ± 0.088 | 1.01 ± 0.024 | 1.02 ± 0.05 | 1.05 ± 0.059 | 1.02 ± 0.061 | 1.01 ± 0.065 | 0.9383 ± 0.0032
7 | HCC1806 BREAST | 0.984 ± 0.095 | 0.999 ± 0.085 | 1.05 ± 0.046 | 1.08 ± 0.17 | 1.12 ± 0.1 | 1.09 ± 0.024 | 0.941 ± 0.17 | 0.95 ± 0.072 | 1.02 ± 0.11 | 1.08 ± 0.11 | 1.19 ± 0.1 | 1.2 ± 0.11 | 1.04 ± 0.14 | 0.925 ± 0.098 | 0.62 ± 0.069 | 0.61 ± 0.01

From the supplement of paper PMC6045584
